Several values for one entry are separate records, joined by “and”; a condition that tells them apart may be missing. Identical values can stand only once.
Tested on: 616215-338-R-J1-PDC spheroid with HUVEC/MSC, viability
Assay: Anticancer human tumor 616215-338-R-J1-PDC patient-derived colon adenocarcinoma cell line growth inhibition [TAK]
Conditions: for viability, T/C: stronger effect = lower value
Text: Combinatorial screen of targeted agents with TAK-243 and ipatasertib in multi-cell type tumor spheroids
A high-throughput screen of multi-cell type tumor spheroids was designed to identify active combinations of targeted small molecules and TAK-243 or ipatasertib. Complex spheroids include a stromal component modeled by human endothelial cells (HUVEC) and fibroblasts modeled by human mesenchymal stem cells (MSCs). The concentration ranges selected for each drug and investigational agent were based upon clinically achievable concentrations if the clinical Cmax of the agent was known.
Compounds. The drugs and investigational agents: TAK-243 (785004), ipatasertib (767898), everolimus (733504), selumetinib (741078), bortezomib (756655), trametinib (758246), ixazomib (758254), vemurafenib (761431), dabrafenib (764134), sapanisertib (764658), alpelisib (765974), and copanlisib (816437), were obtained from the National Cancer Institute (NCI) Developmental Therapeutics Program Chemical Repository. The FDA-approved anticancer drug set is available from the NCI Developmental Therapeutics Program. […] The stock solutions were prepared in dimethyl sulfoxide (DMSO, Sigma-Aldrich, St. Louis, MO, cat. D2650) at 800-fold the tested concentration and stored at -70 degrees C prior to their use. All drugs and investigational agents were tested over a range starting from a high concentration at or near the clinical Cmax and decreasing in half-log increments. If the clinical Cmax for an agent had not been determined, the highest concentration tested was 10 microM.
NCI60 Cell Culture. NCI60 cell lines were obtained from the NCI Developmental Therapeutics Program Tumor Repository. For each lot of cells, the Repository performed Applied Biosystems AmpFLSTR Identifiler testing with PCR amplification to confirm consistency with the published Identifier STR profile for each cell line. Cells were kept in continuous culture for no more than 20 passages. The optimal seeding densities for each of the cell lines at each time point assessed were determined prior to performing the concentration response studies. Briefly, the NCI60 human tumor lines were grown as monolayers in RPMI 1640 medium supplemented with 10% FBS and 2 mmol/L L-glutamine.
An additional 2 lines were from the NCI60 cell line panel including melanomas, MALME-3M and SK-MEL-2. Pooled donor human umbilical vein endothelial cells (HUVEC, Lonza, cat. CC-2519) and human mesenchymal stem cells (hMSC, Lonza, cat. PT-2501) were purchased from Lonza (Walkersville, MD).
PDMR cell lines were grown in complete medium (DC medium): Dulbecco's modified Eagle's medium (DMEM)/F12 supplemented with 5% fetal bovine serum (FBS), 2 mM L-glutamine, 100 U/mL penicillin and 100 µg/ml streptomycin, 0.4 µg/ml hydrocortisone, 10 ng/ml epidermal growth factor (EGF) recombinant human protein, 24 µg/mL adenine, and 0.1 mg/mL primocin. During culture from frozen stock vials, PDMR cells were cultured in the same medium containing 10 µM Y-27632 (see Table 3). The PDCs were cultured in complete DMEM/F12 media without 10 microM Y-27632 dihydrochloride for at least two passages prior to the screen. The pooled donor HUVEC and hMSC were cultured in endothelial cell growth medium 2 (PromoCell, Heidelberg, Germany, cat. C-22011) and mesenchymal stem cell growth medium 2 (PromoCell, cat. C-28009), respectively. For all experiments, HUVEC and hMSC were used at passages </=5.
For the pre-screen, cell seeding densities were determined from a titration spanning the range from 5,000 to 313 cells per well. The mct-spheroids including 60% malignant cells, 25% HUVEC and 15% MSC dispensed as a mixture into U-bottom Ultra-Low Attachment 384-well plates (Corning, NY)
High-throughput Drug Combination Screening.
Prior to their inoculation into 384-well plates, malignant cells, HUVEC, and hMSC were removed from T flasks using TrypLE express (Thermo Fisher Scientific, cat. 12605036) and harvested by centrifugation for 5 min at 233 x g. […]

[1] = curve of first compound, second compound 0.3 µM
[2] = curve of first compound, second compound 0.949 µM
[3] = curve of first compound, second compound 3 µM
[4] = curve of first compound, second compound 9.49 µM
[5] = curve of first compound, second compound 30 µM
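Further: spheroids exposed to drugs for 7 days before readout.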

With `COC1CC2CCC(C)C(O)(O2)C(=O)C(=O)N2CCCCC2C(=O)OC(C(C)CC2CCC(OCCO)C(OC)C2)CC(=O)C(C)C=C(C)C(O)C(OC)C(=O)C(C)CC(C)C=CC=CC=C1C` (centres undefined) the viability, T/C (compound 0.000316 µM) was 98.5% and 109%, the viability, T/C (compound 0.001 µM) was 93.9% and 116% and the viability, T/C (compound 0.00316 µM) was 96.7% and 111%. For the same compound, the viability, T/C (compound 0.01 µM) was 107% and 112%, the viability, T/C (compound 0.0316 µM) was 110% and 117% and the viability, T/C (compound 0.1 µM) was 110% and 83%. The IC50 (curve of compound) was > 100 nM.
Work on `CCCS(=O)(=O)Nc1ccc(F)c(C(=O)c2c[nH]c3ncc(-c4ccc(Cl)cc4)cc23)c1F` + CC(C)NCC(C(=O)N1CCN(c2ncnc3c2C(C)CC3O)CC1)c1ccc(Cl)cc1 yielded an IC50 [1] of 7500 nM, an IC50 [2] of 6750 nM and an IC50 [3] of 2760 nM. The IC50 [4] was < 316 nM, the IC50 [5] was < 316 nM and the viability, T/C (second compound 0.3 µM, first compound 0.316 µM) was 90.8%. For the same compound, the viability, T/C (second compound 0.3 µM, first compound 1 µM) was 98.1%, the viability, T/C (second compound 0.3 µM, first compound 3.16 µM) was 103% and the viability, T/C (second compound 0.3 µM, first compound 10 µM) was 23.8%. The viability, T/C (second compound 0.3 µM, first compound 31.6 µM) was 3.87%, the viability, T/C (second compound 0.3 µM, first compound 100 µM) was 75% and the viability, T/C (second compound 0.949 µM, first compound 0.316 µM) was 107%. For the same compound, the viability, T/C (second compound 0.949 µM, first compound 1 µM) was 114%, the viability, T/C (second compound 0.949 µM, first compound 3.16 µM) was 104% and the viability, T/C (second compound 0.949 µM, first compound 10 µM) was 16.6%. It also gave a viability, T/C (second compound 0.949 µM, first compound 31.6 µM) of 1.77%, a viability, T/C (second compound 0.949 µM, first compound 100 µM) of 46.8% and a viability, T/C (second compound 3 µM, first compound 0.316 µM) of 90.5%. It also gave a viability, T/C (second compound 3 µM, first compound 1 µM) of 76.8%, a viability, T/C (second compound 3 µM, first compound 3.16 µM) of 48% and a viability, T/C (second compound 3 µM, first compound 10 µM) of 7.53%. The viability, T/C (second compound 3 µM, first compound 31.6 µM) was 0.1%, the viability, T/C (second compound 3 µM, first compound 100 µM) was 3.35% and the viability, T/C (second compound 9.49 µM, first compound 0.316 µM) was 29.1%. For the same compound, the viability, T/C (second compound 9.49 µM, first compound 1 µM) was 28.8%, the viability, T/C (second compound 9.49 µM, first compound 3.16 µM) was 23.2% and the viability, T/C (second compound 9.49 µM, first compound 10 µM) was 3.54%. It also gave a viability, T/C (second compound 9.49 µM, first compound 31.6 µM) of 0.12%, a viability, T/C (second compound 9.49 µM, first compound 100 µM) of 1.39% and a viability, T/C (second compound 30 µM, first compound 0.316 µM) of 14.1%. It also gave a viability, T/C (second compound 30 µM, first compound 1 µM) of 15.2%, a viability, T/C (second compound 30 µM, first compound 3.16 µM) of 9.06% and a viability, T/C (second compound 30 µM, first compound 10 µM) of 0.4%. The viability, T/C (second compound 30 µM, first compound 31.6 µM) was 0.13% and the viability, T/C (second compound 30 µM, first compound 100 µM) was 0.3%.
With `Cn1cnc2c(F)c(Nc3ccc(Br)cc3Cl)c(C(=O)NOCCO)cc21` the viability, T/C (compound 0.00949 µM) was 115% and 123%, the viability, T/C (compound 0.03 µM) was 109% and 107% and the viability, T/C (compound 0.0949 µM) was 98.8% and 134%. The viability, T/C (compound 0.3 µM) was 64.2% and 90.9%, the viability, T/C (compound 0.949 µM) was 43.6% and 36.8% and the viability, T/C (compound 3 µM) was 28.2% and 22.3%. For the same compound, the IC50 (curve of compound) was 632 nM and 695 nM.
In the case of `CC(C)CC(NC(=O)C(Cc1ccccc1)NC(=O)c1cnccn1)B(O)O` (centres undefined) + CC(C)NCC(C(=O)N1CCN(c2ncnc3c2C(C)CC3O)CC1)c1ccc(Cl)cc1, the IC50 [1] is reported as > 10 nM, the IC50 [2] is reported as > 10 nM and the IC50 [3] is reported as 5.34 nM. The IC50 [4] was < 0.0316 nM, the IC50 [5] was < 0.0316 nM and the viability, T/C (second compound 0.3 µM, first compound 31.6 pM) was 90.8%. The viability, T/C (second compound 0.3 µM, first compound 0.0001 µM) was 99.2%, the viability, T/C (second compound 0.3 µM, first compound 0.000316 µM) was 90.8% and the viability, T/C (second compound 0.3 µM, first compound 0.001 µM) was 95.1%. For the same compound, the viability, T/C (second compound 0.3 µM, first compound 0.00316 µM) was 96.6%, the viability, T/C (second compound 0.3 µM, first compound 0.01 µM) was 112% and the viability, T/C (second compound 0.949 µM, first compound 31.6 pM) was 114%. It also gave a viability, T/C (second compound 0.949 µM, first compound 0.0001 µM) of 109%, a viability, T/C (second compound 0.949 µM, first compound 0.000316 µM) of 121% and a viability, T/C (second compound 0.949 µM, first compound 0.001 µM) of 112%. It also gave a viability, T/C (second compound 0.949 µM, first compound 0.00316 µM) of 111%, a viability, T/C (second compound 0.949 µM, first compound 0.01 µM) of 80.3% and a viability, T/C (second compound 3 µM, first compound 31.6 pM) of 81.1%. It also gave a viability, T/C (second compound 3 µM, first compound 0.0001 µM) of 88.7%, a viability, T/C (second compound 3 µM, first compound 0.000316 µM) of 88.7% and a viability, T/C (second compound 3 µM, first compound 0.001 µM) of 80.9%. The viability, T/C (second compound 3 µM, first compound 0.00316 µM) was 84.8%, the viability, T/C (second compound 3 µM, first compound 0.01 µM) was 8.39% and the viability, T/C (second compound 9.49 µM, first compound 31.6 pM) was 33.9%. It also gave a viability, T/C (second compound 9.49 µM, first compound 0.0001 µM) of 35.2%, a viability, T/C (second compound 9.49 µM, first compound 0.000316 µM) of 26.4% and a viability, T/C (second compound 9.49 µM, first compound 0.001 µM) of 29.8%. The viability, T/C (second compound 9.49 µM, first compound 0.00316 µM) was 32.2%, the viability, T/C (second compound 9.49 µM, first compound 0.01 µM) was 0.75% and the viability, T/C (second compound 30 µM, first compound 31.6 pM) was 15.3%. For the same compound, the viability, T/C (second compound 30 µM, first compound 0.0001 µM) was 15.2%, the viability, T/C (second compound 30 µM, first compound 0.000316 µM) was 14.1% and the viability, T/C (second compound 30 µM, first compound 0.001 µM) was 13.2%. For the same compound, the viability, T/C (second compound 30 µM, first compound 0.00316 µM) was 15.1% and the viability, T/C (second compound 30 µM, first compound 0.01 µM) was 0.24%.

— PubChem BioAssay AID2060352 (Molecular Pharmacology Branch, DTP, NCI, 2025)
